The structures appear in SMILES notation. Where a name gives a salt, the structure may show the parent alone. Read-outs that look alike come from different tables or passages of the source.

One data set concerns Vero cells. Kind of data set: Cell viability (CellTiter-Glo) of Vero cells. It counts as cell-based.
For data set [1], the system named is ZIKV SPH. Put plainly: Autophagy compound library screen, ZIKV SPH titer (TCID50) in C6/36 cells. The data set is classed as cell-based, Zika virus. The settings on record: for activity at 10 µM: Zika virus, read-out: ZIKV SPH Relative Titer in C6/36 Cells.
Data set [2] has as its system ZIKV SPH. Kind of data set: Autophagy compound library screen, ZIKV SPH titer (TCID50) in Vero cells. The settings on record: for activity at 10 µM: Zika virus, Vero, read-out: ZIKV SPH Relative Titer in Vero Cells. It counts as cell-based, Zika virus.
The test system of the next data set is C6/36 cells. It counts as cell-based, Ae. albopictus.
Setting [3] is: 10 µM compound, 40 h, CellTiter-Glo, ± SEM, three independent trials.
[4] abbreviates: 10 µM compound, MOI 0.1, 96 h, TCID50, ± SEM, three independent trials.
[5] abbreviates: 10 µM compound, MOI 0.1, 40 h, TCID50, ± SEM, three independent trials.
Setting [6] is: 10 µM compound, 96 h, CellTiter-Glo, ± SEM, three independent trials.
The mark [7] stands for this setting: C6/36, 10 µM compound, MOI 0.1, 96 h, TCID50, ± SEM, three independent trials.

Turning to `CNc1ccc2oc(C[C@H]3O[C@@]4(CC[C@H]3C)O[C@H]([C@H](C)C(=O)c3ccc[nH]3)[C@H](C)C[C@H]4C)nc2c1C(=O)O` [Compound A23187, A23187], the “Vero Viability” value in the data set with Vero cells (setting [3]) is listed as 17.0 ± 6.7% of untreated control. Moreover, the “ZIKV SPH Relative Titer in C6/36 Cells” value in the data set with ZIKV SPH [1] (setting [4]) is 0.0 ± 0% of untreated control. In addition, the “ZIKV SPH Relative Titer in Vero Cells” value in the data set on ZIKV SPH [2] (setting [5]) is 0.5 ± 0.5% of untreated control. In the data set on C6/36 cells (setting [6]), the “C6/36 Viability” value is 1 ± 0% of untreated control.
The like results for `O[C@@H](CS)[C@@H](O)CS` [DTT] were, in that order, 93.0 ± 1.5% of untreated control, 145.7 ± 16.6% of untreated control, 60.2 ± 20.1% of untreated control and 79 ± 4.4% of untreated control.
For the compound `C[C@H](CCC(=O)[O-])[C@H]1CC[C@H]2[C@@H]3CC[C@@H]4C[C@H](O)CC[C@]4(C)[C@H]3C[C@H](O)[C@]12C.[Na+]` [Deoxycholate·Na], in the data set on Vero cells (10 µM), the “Vero Viability” value is given as 95.3 ± 2.6% of untreated control. Further, the “ZIKV SPH Relative Titer in C6/36 Cells” value in the data set on ZIKV SPH [1] (setting [4]) is 90.6 ± 12.5% of untreated control. Further, in the data set on ZIKV SPH [2] (setting [5]), the “ZIKV SPH Relative Titer in Vero Cells” value is 76.6 ± 16.6% of untreated control. Besides, in the data set with C6/36 cells (setting [6]), the “C6/36 Viability” value is given as 83 ± 1% of untreated control.
For `CCCC(=O)Nc1ncnc2c1ncn2[C@@H]1O[C@@H]2COP(=O)([O-])O[C@H]2[C@H]1OC(=O)CCC.[Na+]` [Dibutyryl cAMP·Na] the same measures were 98.3 ± 4.4% of untreated control, 142.6 ± 63.9% of untreated control, 60.6 ± 36.7% of untreated control and 117 ± 10.7% of untreated control.
Turning to `COc1cc(CNC(=O)CCCCCCC(C)C)ccc1O` [Dihydrocapsaicin], the “Vero Viability” value in the data set with Vero cells (10 µM) is given as 92.3 ± 3.8% of untreated control. For the same compound, the values for the activity at 10 µM in the data set with ZIKV SPH [1] (setting [7]) and in the data set with ZIKV SPH [2] (setting [5]) were 64.1 ± 16% and 28.7 ± 10.5%, respectively. Also, in the data set with C6/36 cells (10 µM), the “C6/36 Viability” value is recorded as 61 ± 2.2% of untreated control.
Turning to `CCCCCC[C@@H]([C@@H](C)O)n1cnc2c(N)ncnc21.Cl` [EHNA·HCl], the “Vero Viability” value with Vero cells (10 µM) is 92.3 ± 2% of untreated control. The “ZIKV SPH Relative Titer in C6/36 Cells” value in the data set with ZIKV SPH [1] (setting [4]) was 36.4 ± 9.1% of untreated control. Moreover, the “ZIKV SPH Relative Titer in Vero Cells” value in the data set on ZIKV SPH [2] (setting [5]) is on record as 81.0 ± 7.6% of untreated control. The “C6/36 Viability” value in the data set on C6/36 cells (setting [6]) was 55 ± 4.2% of untreated control.
For `COc1cc([C@@H]2c3cc4c(cc3[C@@H](O[C@@H]3O[C@@H]5CO[C@@H](C)O[C@H]5[C@H](O)[C@H]3O)[C@H]3COC(=O)[C@H]23)OCO4)cc(OC)c1O` [Etoposide], the “Vero Viability” value in the data set with Vero cells (10 µM) is 84.0 ± 3.6% of untreated control. Further, the activity at 10 µM in the data set with ZIKV SPH [1] (setting [7]) turned out to be 737 ± 89.3%; with ZIKV SPH [2] (setting [5]), 134 ± 34.3%. For the same compound, the “C6/36 Viability” value in the data set on C6/36 cells (setting [6]) was 119 ± 12.5% of untreated control.
For `O=C1NCN(c2ccccc2)C12CCN(CCCC(c1ccc(F)cc1)c1ccc(F)cc1)CC2` [Fluspirilene] the same measures were 56.7 ± 16% of untreated control, 1 ± 0.7%, 2.5 ± 0.6% and 26 ± 10.3% of untreated control.
On to `CN(C)CCCn1cc(C2=C(c3c[nH]c4ccccc34)C(=O)NC2=O)c2ccccc21` [Go6850], for which the “Vero Viability” value in the data set with Vero cells (setting [3]) is listed as 36.0 ± 9% of untreated control. Also, in the data set with ZIKV SPH [1] (setting [4]), the “ZIKV SPH Relative Titer in C6/36 Cells” value was 1.4 ± 1.4% of untreated control. In addition, the “ZIKV SPH Relative Titer in Vero Cells” value in the data set with ZIKV SPH [2] (setting [5]) is on record as 1.3 ± 0.9% of untreated control. Also, the “C6/36 Viability” value in the data set with C6/36 cells (setting [6]) is given as 21 ± 0% of untreated control.
As to `C[C@H](CCC(=O)O)C[C@H](C)C[C@H](C)C(=O)/C=C(\O)[C@H](C)C[C@H](C)C/C=C/[C@@H](C)[C@@H](O)[C@@H](C)[C@@H](O)C[C@@H]1CC[C@@](C)([C@H]2CC[C@@](C)([C@@H](C)O)O2)O1` [Ionomycin], the “Vero Viability” value with Vero cells (setting [3]) is reported as 27.7 ± 10.4% of untreated control. The activity at 10 µM in the data set on ZIKV SPH [1] (setting [7]) and in the data set on ZIKV SPH [2] (setting [5]) was 0% throughout. For the same compound, in the data set on C6/36 cells (setting [6]), the “C6/36 Viability” value is given as 1 ± 0.3% of untreated control.
For the compound `CC(Oc1ccc(O)cc1)(P(=O)(O)O)P(=O)(O)O` [L-690,330], the “Vero Viability” value with Vero cells (setting [3]) is reported as 93.7 ± 3.5% of untreated control. Moreover, in the data set on ZIKV SPH [1] (setting [4]), the “ZIKV SPH Relative Titer in C6/36 Cells” value is 66.8 ± 2.6% of untreated control. The “ZIKV SPH Relative Titer in Vero Cells” value in the data set with ZIKV SPH [2] (setting [5]) was 40.7 ± 10.6% of untreated control. In addition, the “C6/36 Viability” value with C6/36 cells (setting [6]) is 87 ± 4.6% of untreated control.
For the compound `[Cl-].[Li+]` [Lithium Chloride], in the data set on Vero cells (setting [3]), the “Vero Viability” value is recorded as 87.0 ± 1% of untreated control. Moreover, in the data set on ZIKV SPH [1] (setting [4]), the “ZIKV SPH Relative Titer in C6/36 Cells” value was 167.9 ± 68.4% of untreated control. For the same compound, the “ZIKV SPH Relative Titer in Vero Cells” value in the data set with ZIKV SPH [2] (setting [5]) is on record as 85.4 ± 18.7% of untreated control. Further, the “C6/36 Viability” value in the data set on C6/36 cells (setting [6]) is 111 ± 10.7% of untreated control.
On to `CN(C)C(=O)C(CCN1CCC(O)(c2ccc(Cl)cc2)CC1)(c1ccccc1)c1ccccc1` [Loperamide HCl], for which, in the data set with Vero cells (setting [3]), the “Vero Viability” value is reported as 66.7 ± 17.4% of untreated control. Further, the figures for the activity at 10 µM with ZIKV SPH [1] (setting [7]) and in the data set on ZIKV SPH [2] (setting [5]) were 0.1 ± 0.1% and 11.7 ± 3.3%, respectively. For the same compound, in the data set on C6/36 cells (setting [6]), the “C6/36 Viability” value is reported as 12 ± 6.1% of untreated control.
On to `COC(=O)C1=C(C)NC(C)=C(C(=O)OCCCN2CCC(c3ccccc3)(c3ccccc3)CC2)[C@H]1c1cccc([N+](=O)[O-])c1` [Niguldipine], for which the “Vero Viability” value with Vero cells (10 µM) is 30.0 ± 14.2% of untreated control. Further, the activity at 10 µM was 0% in the data set with ZIKV SPH [1] (C6/36, 96 h) and 0.2 ± 0.1% in the data set with ZIKV SPH [2] (40 h). Also, the “C6/36 Viability” value in the data set on C6/36 cells (10 µM) is recorded as 5 ± 2.1% of untreated control.
`COC(=O)Nc1nc2ccc(C(=O)c3cccs3)cc2[nH]1` [Nocodazole]: the “Vero Viability” value with Vero cells (10 µM) is on record as 56.0 ± 9.6% of untreated control. For the same compound, the figures for the activity at 10 µM in the data set on ZIKV SPH [1] (setting [7]) and in the data set with ZIKV SPH [2] (setting [5]) were 182 ± 39.5% and 28.4 ± 23.9%, respectively. The “C6/36 Viability” value with C6/36 cells (10 µM) is listed as 58 ± 2.9% of untreated control.
As to `CNCCCN1c2ccccc2CCc2ccc(Cl)cc21.Cl` [Norclomipramine HCl], the “Vero Viability” value in the data set on Vero cells (setting [3]) was 48.7 ± 22.9% of untreated control. Moreover, in the data set on ZIKV SPH [1] (setting [4]), the “ZIKV SPH Relative Titer in C6/36 Cells” value is recorded as 13.4 ± 8.7% of untreated control. Also, in the data set on ZIKV SPH [2] (setting [5]), the “ZIKV SPH Relative Titer in Vero Cells” value was 3.9 ± 0.5% of untreated control. Also, the “C6/36 Viability” value in the data set on C6/36 cells (setting [6]) is 19 ± 8.9% of untreated control.
The like results for `COc1cccc(-c2cc(=O)c3ccccc3o2)c1N` [PD-98059] were, in that order, 90.7 ± 1.3% of untreated control, 197.3 ± 40% of untreated control, 101.0 ± 23.3% of untreated control and 93 ± 8.4% of untreated control.
The like results for `O=S(=O)(F)Cc1ccccc1` [PMSF] were, in that order, 98.3 ± 2% of untreated control, 258.0 ± 145.2% of untreated control, 89.0 ± 7% of untreated control and 81 ± 6.4% of untreated control.
Turning to `NS(=O)(=O)C#Cc1ccccc1` [Pifithrin-µ], the “Vero Viability” value with Vero cells (10 µM) is listed as 49.0 ± 15% of untreated control. Also, the “ZIKV SPH Relative Titer in C6/36 Cells” value in the data set on ZIKV SPH [1] (setting [4]) is 75.3 ± 27.5% of untreated control. The “ZIKV SPH Relative Titer in Vero Cells” value with ZIKV SPH [2] (setting [5]) is 38.5 ± 12.4% of untreated control. Further, the “C6/36 Viability” value with C6/36 cells (setting [6]) is reported as 72 ± 3.2% of untreated control.

The values are drawn from paper PMC6356585 (Viruses, 2018).
